Assay results from US20100216875A1, “METHODS OF TREATING ALZHEIMER'S DISEASE” (priority 2006, published 2010).

What was measured:
[1] = test system: brain and synaptosomal Aβ; experiment: guinea pig brain and synaptosome Aβ by ELISA after icv infusion; assay type: in vivo; settings: icv 0.15 mg/kg/day
Text: Guinea pig (gp) is a natural, non-transgenic model of human APP processing gpAPP is 98% homologous to human APP, contains the human wild-type β-secretase site, and gpAβ is identical to human Aβ. Brain synaptosome preparations are enriched with neuronal synapses which are the sites at which regulated secretion occurs and are an in vivo measure of regulated secretory secretion CTFβ is an APP fragment that results from p-secretase cleavage of APP and reflects in vivo β-secretase activity. […] E64d was icy administered into gp brains (0.15 mg/kg/day) for 7 or 30 days. […] In FIG. 5b, total synaptosomal Aβ is shown.
CA074Me (0.15 mg/kg/day) was icy infused into gp brains with mini pumps. […] An equal reduction of Aβ40 and Aβ42 is consistent with the inhibitor affecting p-secretase activity
At the end of the treatment, the brains were isolated and extracted with guanidine hydrochloride and Aβ40 and Aβ42 levels were determined using ELISA.
Cathepsin B inhibitors were administered directly into the brain by icy infusion with minipumps in time course studies at different doses. Guinea pigs were infused with compounds using Alzet pumps (2.5 μl/hr, with compounds at 1 mg/ml in saline) for 7 and 30 days, and other times. This initial dose of compound was selected because E64d and CA074Me are effective at this dose. Each treatment group consisted of eight to ten guinea pigs, including the vehicle control group.
At the end of each experiment, animals were sacrificed and half the brain was taken for ELISA measurement of Aβ40 and Aβ42 levels. The other half was isolated for synaptosome preparations for ELISA measurement of Aβ40 and Aβ42 content in nerve terminals. Synaptosomes were prepared by homogenization in isotonic sucrose (320 mM), pH 7.4, 1 mM EDTA, 0.25 mM dithiothreitol, and 30 U/MI RNAse inhibitor. The homogenate was centrifuged at 1000×g for 10 minutes. The supernatant was loaded on a Sucrose-Percoll discontinuous gradient and centrifuged at 32,000×g for 5 minutes (80) Enriched synaptosomes were washed in PBS, and centrifuged at 12,000×g for 4 minutes. The supernatant was removed, and the synaptosome containing pellet was resuspended in 50% OptiPrep (Accurate Chemica. Westbury, N.Y.), loaded on an OptiPrep discontinuous flotation gradient (9, 12.5, 25, and 35%) and centrifuged at 10,000×g for 20 minutes. The synaptosomes were obtained at the […]
For quantitative analysis of Aβ peptides, an enzyme-linked immunosorbent assay (ELISA) was used to measure the levels of total Aβ, Aβtotal, Aβ40 and Aβ42 in the brains and synaptosomes of guinea pigs (Biosource International, Camarillo, Calif.) Aβtotal, Aβ40, Aβ42 was extracted from guinea pig brains or from synaptosomes by guanidine hydrochloride and quantified as described by the manufacturer. This assay extracted the total Aβ peptide from the brain (both soluble and aggregated). Tissue samples were homogenized in 5M guanidine buffer (5M guanidine HCl in 50 mM Tris-Cl, pH 8.3; Sigma-Aldrich, St. Louis, Mo.) at 1:10 w/v dilution. Homogenates were agitated at room temperature for 3-4 hours, then stored at −20° C. The day before running the ELISA, the tissue samples were diluted further 1:10 to provide a final guanidine concentration of 0.5M. These diluted homogenates were spun down at 14,000 rpm for 20 minutes at 4° C. and supernatants used for Aβ determination by ELISA (84-86). Brain and synaptosome extracts were assayed as diluted in 0.5M guanidine. In addition, Aβ40 and Aβ42 were assayed using ELISA using 6E10 as the capture antibody and Rb209 and Rb321 as reporter antibodies, respectively, for Aβ40 and Aβ42 (96).

[2] = test system: transgenic APPIn mice (London mutant human APP); experiment: brain Aβ and amyloid plaque load in transgenic APPIn mice; assay type: in vivo, mouse; settings: icv 0.015 mg/kg/day, 28 days; for reduction of amyloid plaque load: cortex
Protocol: Transgenic mice expressing human APP containing the London mutation (APPIn) mimic AD function and pathology in that they are cognitively deficient, have brain amyloid plaque and elevated Aβ (8). […] CA074Me or E64d were administered by icy infusion in brains (0.015 mg/kg/day) for 28 days (8 animals per treatment group).
APPIn mice express the clinical mutant human APP (APP[V717I]) which has a mutation at the γ-secretase site that results in the overproduction of Aβ and the behavioral and neuropathology that develop an AD phenotype (8). These mice show early stage deficits in cognition and memory at 3-9 months age. At the later age of 8-12 months, amyloid plaques have developed in brains of these mice, with increased levels of Aβ40 and Aβ42 peptides in the brain. […] Thus, this AD mouse model allows testing of select reversible compounds to improve cognition and to reduce brain levels of Aβ peptides and amyloid plaques.
Direct icy infusion into the brain was the first route of administration to be tested to establish the effectiveness of reversible inhibitors in the brain to provide cognitive improvement, and reduction in brain Aβ peptides and amyloid plaques. Icy infusion was performed as described above for the irreversible inhibitors with use of the Alzet minipump. The initial dose utilized was the same dosage used for E64d and CA074Me in the APPIn mice or APPswe/In mice Administration of these compounds began at approximately 1-2 months of age and infusion was conducted for periods of 1, 2, 4, and 8 months (or other time periods). Administration of the select reversible compounds by direct icy infusion into mouse brains was conducted initially at 0.025 μl/hr of 1 mg/ml, other doses may be examined based on results with the first dose. Each time point was conducted with about 8-10 animals and 8-10 normal control animals (age-matched) (or greater number of mice per treatment group, if necessary, for appropriate statistical evaluation). At the end of each of these infusion periods, cognitive testing and assessment of Aβ peptide levels with plaque pathology was evaluated. At each of these time points, mice were tested for cognition, and then sacrificed for evaluation of Aβ and neuropathology in the brain
After behavioral testing was completed, the mice were sacrificed for analyses of Aβ40 and Aβ42 peptide levels, and neuropathology. One half brain (one hemisphere) was utilized to prepare brain extracts for measurement of Aβ40 and Aβ42 levels by ELISA assays, and the other half brain was used for neuropathological evaluation. Procedures for preparation of brain extracts and ELISA assays for Aβ peptides are those used for analyses of guinea pig brains
Aβ-related neuropathology was assessed in cortex and hippocampus of brains. The relative extent of Aβ immunoreactivity in neurons and glial cells was assessed. Immunostaining for Aβ was conducted as described previously (58) Aβ-related neuropathology was assessed in cortex and hippocampus of brains, as well as other regions of the brain as controls. Brain tissue was fixed in 4% paraformaldehyde overnight, and then processed to paraffin. Serial sections were obtained, deparaffinized and washed in TBS buffer. Each section was blocked with appropriate normal serum (mouse or rabbit), and subjected to primary anti-Aβ antibody for detection of amyloid deposits. Sections were then stained with DAB ([…]) with the Vector ABC Elite kit (Vector Laboratories). Amyloid areas were imaged with microscopic computer-assisted analysis system using the NIH Image Analysis Software.

## CCCNC(=O)[C@H]1O[C@@H]1C(=O)N[C@H](C(=O)N1CCC[C@H]1C(=O)OC)[C@@H](C)CC [CA074Me]
[1]; 7 days
  reduction of Aβ40 in brain extracts: 50%
  reduction of Aβ42 in brain extracts: 50%
  reduction of total Aβ in brain extracts: 50%
  reduction of total synaptosomal Aβ: 45%
[1]; 30 days
  reduction of Aβ40 in brain extracts: 50%
  reduction of Aβ42 in brain extracts: 50%
  reduction of total Aβ in brain extracts: 60%
  reduction of total synaptosomal Aβ: 50%
[1]; duration not stated
  reduction of Aβ40 in the brain: 50-60%
  reduction of Aβ42 in the brain: 50-60%
[2]
  decrease in brain Aβ40: 50%
  decrease in brain Aβ42: 50%
  reduction of amyloid plaque load: significantly reduce amyloid load

## CCOC(=O)[C@H]1O[C@@H]1C(=O)N[C@@H](CC(C)C)C(=O)NCCC(C)C [E64d]
[1]; 7 days
  reduction of total Aβ in brain extracts: 30%
  reduction of total synaptosomal Aβ: 27%
[1]; 30 days
  reduction of total Aβ in brain extracts: 50%
  reduction of total synaptosomal Aβ: 50%
[1]; duration not stated
  reduction of brain Aβ: 50%
[2]
  decrease in brain Aβ40: 50%
  decrease in brain Aβ42: 50%
  reduction of amyloid plaque load: significantly reduce amyloid load
